Measured values as given in US20260042764A1, “COMPOSITIONS AND METHODS FOR INHIBITION OF KRAS” (TheRas, Inc., priority 2022, published 2026).

Columns and labels:
SW1900 cells (KRAS G12D) [1] = assay: Cell-based pERK HTRF assay in SW1900 cells (Biological Example 5)
How it was run: (§1)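 pERK1/2 (Thr202/Tyr204) HTRF read-out, 665/620 nm ratio, after lysis and 24 h antibody incubation at 4 °C; EC50 by variable-slope four-parameter model. Compounds applied for 2 h at 37 °C as 9 three-fold dilutions, 0.25% DMSO, to cells plated the day before in 10% FBS medium.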

[2] = tested on: Capan-2 cells (KRAS G12V); assay: Cell-based pERK HTRF assay in Capan-2 cells (Biological Example 5)
How it was run: as §1

HT1080 cells (NRAS) [3] = assay: Cell-based pERK HTRF assay in HT1080 cells (Biological Example 5); settings: Homo sapiens, HT-1080
How it was run: as §1

[4] = tested on: Capan-2 cells (KRAS G12V); assay: 3D Cell viability assay in Capan-2 cells (Biological Example 6); assay type: cell-based; settings: Homo sapiens; Capan-2 (KRAS G12V) spheroids, 72 hours
How it was run: (§2)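 3D spheroid viability: 1000 cells/well, 48 h spheroid formation (10% FBS, 37 °C, 5% CO2); 9-pt 3-fold dose curve, 0.25% DMSO, 72 h; CTG 3D luminescence; EC50 by 4-parameter log(inhibitor) vs response fit.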

H1573 cells (KRAS G12A) [5] = assay: 3D Cell viability assay in H1573 cells (Biological Example 6); assay type: cell-based; settings: Homo sapiens, NCI-H1573; H1573 (KRAS G12A) spheroids, 72 hours
How it was run: as §2

HCT116 cells (KRAS G13D) [6] = assay: Cell-based pERK HTRF assay in HCT116 cells (Biological Example 5); settings: Homo sapiens, HCT-116
Experimental: (§3) Biological Example 5: Cell-based PERK HTRF assay in AsPC-1, SW1900, HPAC, Capan-2, RKN, H358, HCT116, KP-2, H1573, A549, MKN1, and HT1080 cells
(§4) The inhibition of ERK phosphorylation, as measured using the HTRF Advanced Phospho-ERK 1/2 (Thr202/Tyr204) Detection Assay kit (Perkin Elmer), was used to determine the effectiveness of test compounds in disrupting KRAS-driven protein/effector signaling in cells.
(§5) On day 1, cells were seeded into 96-well plates at 2.5×10^4 cells/well in 100 μL of complete growth media supplemented with 10% fetal bovine serum (FBS) and incubated at 37° C., in the presence of 5% CO2.
(§6) On day 2, cells were treated with compounds diluted in DMSO at 0.25% final DMSO concentration. Compounds were dosed in a 9-point concentration curve with three-fold dilution between concentrations. Cells were incubated in the presence of compound for two hours at 37° C. Following this treatment period, cells were harvested by aspirating the media, adding 40 μL of kit-supplied 1x lysis buffer per well, and shaking for 30 minutes at 250 rpm at room temperature.
(§7) Following cell lysis, samples were homogenized by pipetting up and down twenty times and 16 μL of cell lysate per well was transferred from the 96-well cell culture plate to two wells of a 384-well detection plate. A complete detection buffer was prepared by diluting D2 and Eu Cryptate antibodies 1:20 in kit-provided detection solution, 4 μL of complete detection buffer was then added to each well with lysate. Plates were incubated with gentle rocking for 24 hours at 4° C.
(§8) Following this incubation period, plates were centrifuged at 500×g for one minute and analyzed on a CLARIOstar plate reader. Data was imported into Microsoft Excel and the signal from the 665 nm channel was divided by the signal from the 620 nm channel. % pERK was calculated as: […]
(§9) Data was imported to the Prism software package (Graphpad) and EC50 values were calculated using the log (inhibitor) vs, response—variable slopc (Four parameters) model.

A549 cells (KRAS G12S) [7] = assay: Cell-based pERK HTRF assay in A549 cells (Biological Example 5); settings: Homo sapiens
Experimental: as §3, §4, §5, §6, §7, §8, §9

[8] = tested on: MKN1 cells (KRAS amplification); assay: Cell-based pERK HTRF assay in MKN1 cells (Biological Example 5)
How it was run: as §1

HPAC cells (KRAS G12D) = assay: 3D Cell viability assay in HPAC cells (Biological Example 6); assay type: cell-based; settings: Homo sapiens, HPAC, 72 h, HPAC (KRAS G12D) spheroids
How it was run: as §2

H1573 cells (KRAS G12A) [9] = assay: Cell-based pERK HTRF assay in H1573 cells (Biological Example 5); settings: Homo sapiens, NCI-H1573
Experimental: as §3, §4, §5, §6, §7, §8, §9

A549 cells (KRAS G12S) [10] = assay: 3D Cell viability assay in A549 cells (Biological Example 6); assay type: cell-based; settings: Homo sapiens; A549 (KRAS G12S) spheroids, 72 hours
How it was run: as §2

HCT116 cells (KRAS G13D) [11] = assay: 3D Cell viability assay in HCT116 cells (Biological Example 6); assay type: cell-based; settings: Homo sapiens, HCT-116; HCT116 (KRAS G13D) spheroids, 72 hours
How it was run: as §2

HT1080 cells (NRAS) [12] = assay: 3D Cell viability assay in HT1080 cells (Biological Example 6); assay type: cell-based; settings: Homo sapiens, HT-1080; HT1080 (NRAS) spheroids, 72 hours
How it was run: as §2

KP-2 cells (KRAS G12R) = assay: Cell-based pERK HTRF assay in KP-2 cells (Biological Example 5); settings: KP-2 (KRAS G12R) cells
Experimental: as §3, §4, §5, §6, §7, §8, §9

SW1900 cells (KRAS G12D) [13] = assay: 3D Cell viability assay in SW1900 cells (Biological Example 6); assay type: cell-based; settings: Homo sapiens; SW1990 (text: SW1900, KRAS G12D) spheroids, 72 hours
How it was run: as §2

AsPC-1 cells (KRAS G12D) = assay: Cell-based pERK HTRF assay in AsPC-1 cells (Biological Example 5)
Experimental: as §3, §4, §5, §6, §7, §8, §9

RKN cells (KRAS G12V) [14] = assay: Cell-based pERK HTRF assay in RKN cells (Biological Example 5)
How it was run: as §1

RKN cells (KRAS G12V) [15] = assay: 3D Cell viability assay in RKN cells (Biological Example 6); assay type: cell-based; settings: RKN (KRAS G12V) spheroids, 72 hours
How it was run: as §2

[16] = Homo sapiens, SW1990, SW1990 cells (text: SW1900, KRAS G12D)
[17] = Homo sapiens, Capan-2, Capan-2 (KRAS G12V) cells
[18] = Homo sapiens, MKN-1, MKN cells (MKN1, KRAS amplification)
[19] = Homo sapiens, ASPC1, AsPC-1 (KRAS G12D) cells

SMILES	IC50 (SW1900 cells (KRAS G12D) [1]; [16])	IC50 [2, 17]	IC50 (HT1080 cells (NRAS) [3])	IC50 [4]	IC50 (H1573 cells (KRAS G12A) [5])	IC50 (HCT116 cells (KRAS G13D) [6])	IC50 (A549 cells (KRAS G12S) [7])	IC50 [8, 18]	IC50 (HPAC cells (KRAS G12D))	IC50 (H1573 cells (KRAS G12A) [9])	IC50 (A549 cells (KRAS G12S) [10])	IC50 (HCT116 cells (KRAS G13D) [11])	IC50 (HT1080 cells (NRAS) [12])	IC50 (KP-2 cells (KRAS G12R))	IC50 (SW1900 cells (KRAS G12D) [13])	IC50 (AsPC-1 cells (KRAS G12D); [19])	IC50 (RKN cells (KRAS G12V) [14])	IC50 (RKN cells (KRAS G12V) [15])	other results
CC(=O)N1CC[C@@H](N(C)c2nc(OC[C@@]34CCCN3C[C@H](F)C4)nc3c(F)c(-c4ccc(F)c5sc(N)c(C#N)c45)c(C(F)(F)F)cc23)[C@H]1C (single isomer, unassigned) [Compound 193]	≤ 100 nM	≤ 100 nM	> 1000 nM	≤ 100 nM	≤ 100 nM	≤ 100 nM	≤ 100 nM	≤ 100 nM	100 to 1000 nM	≤ 100 nM	≤ 100 nM	≤ 100 nM	> 1000 nM	≤ 100 nM					
N#Cc1c(N)sc2c(F)ccc(-c3c(C(F)(F)F)cc4c(N5CC6CC(C5)O6)nc(OC[C@@]56CCCN5C[C@H](F)C6)nc4c3F)c12 (single isomer, unassigned) [Compound 275]	≤ 100 nM	≤ 100 nM	> 1000 nM	≤ 100 nM	≤ 100 nM	≤ 100 nM	≤ 100 nM	≤ 100 nM	> 1000 nM	≤ 100 nM	≤ 100 nM	100 to 1000 nM	> 1000 nM	100 to 1000 nM	≤ 100 nM	100 to 1000 nM	≤ 100 nM	≤ 100 nM	
CCN(c1nc(OC[C@@]23CCCN2C[C@H](F)C3)nc2c(F)c(-c3ccc(F)c4sc(N)c(C#N)c34)c(C(F)(F)F)cc12)[C@H]1CCN(C(C)=O)C1 [Compound 262]	≤ 100 nM	≤ 100 nM	> 1000 nM	≤ 100 nM	≤ 100 nM	≤ 100 nM	≤ 100 nM	≤ 100 nM	≤ 100 nM	≤ 100 nM	≤ 100 nM	100 to 1000 nM	> 1000 nM	≤ 100 nM	≤ 100 nM	100 to 1000 nM	≤ 100 nM	≤ 100 nM	
CCN(c1nc(OC[C@@]23CCCN2C[C@H](F)C3)nc2c(F)c(-c3ccc(F)c4sc(N)c(C#N)c34)c(C(F)(F)F)cc12)[C@@H]1CCN(C(C)=O)C1 [Compound 268]	≤ 100 nM	≤ 100 nM	> 1000 nM	≤ 100 nM	≤ 100 nM	≤ 100 nM	≤ 100 nM	≤ 100 nM	≤ 100 nM	≤ 100 nM	≤ 100 nM	100 to 1000 nM	> 1000 nM	100 to 1000 nM	≤ 100 nM	100 to 1000 nM	≤ 100 nM	≤ 100 nM	
CCN(c1nc(OC[C@@]23CCCN2C[C@H](F)C3)nc2c(F)c(-c3ccc(F)c4sc(N)c(C#N)c34)c(C(F)(F)F)cc12)[C@H]1CCN(C(=O)C(C)C)C1 [Compound 332]			> 1000 nM	≤ 100 nM	≤ 100 nM	≤ 100 nM	≤ 100 nM		100 to 1000 nM	≤ 100 nM	≤ 100 nM	100 to 1000 nM	> 1000 nM	≤ 100 nM	≤ 100 nM		≤ 100 nM	≤ 100 nM	IC50 (SW1900 cells (KRAS G12D) [1]; SW1990 cells (text: SW1900, KRAS G12D)): ≤ 100 nM; IC50 ([2]; Capan-2 (KRAS G12V) cells): ≤ 100 nM; IC50 (AsPC-1 cells (KRAS G12D); AsPC-1 (KRAS G12D) cells): ≤ 100 nM; IC50 ([8]; MKN cells (MKN1, KRAS amplification)): ≤ 100 nM
N#Cc1cnn2c1CN(c1nc(OC[C@@]34CCCN3C[C@H](F)C4)nc3c(F)c(-c4ccc(F)c5sc(N)c(C#N)c45)c(C(F)(F)F)cc13)CC2 [Compound 392]	≤ 100 nM	100 to 1000 nM	> 1000 nM	100 to 1000 nM	100 to 1000 nM	≤ 100 nM	100 to 1000 nM	≤ 100 nM	100 to 1000 nM	100 to 1000 nM	100 to 1000 nM	100 to 1000 nM	> 1000 nM	100 to 1000 nM	≤ 100 nM	> 1000 nM	≤ 100 nM	≤ 100 nM	
C[C@@H]1[C@H](N(C)c2nc(OC[C@@]34CCCN3C[C@H](F)C4)nc3c(F)c(-c4ccc(F)c5sc(N)c(C#N)c45)c(C(F)(F)F)cc23)CC(=O)N1C [Compound 440]	≤ 100 nM	100 to 1000 nM	> 1000 nM	100 to 1000 nM	> 1000 nM	≤ 100 nM	100 to 1000 nM	≤ 100 nM	100 to 1000 nM	100 to 1000 nM	100 to 1000 nM	> 1000 nM	> 1000 nM	100 to 1000 nM	≤ 100 nM	> 1000 nM	100 to 1000 nM	≤ 100 nM	
